Counter-ions that a name gives are not always drawn.
Experiments:
[1] = tested on: DU145 (human prostate cancer cells); experiment: Antiproliferative activity, WST1 colorimetric test, DU145; format: cell-based; conditions: DU-145, 96 hours treatment, up to 10 μM, read-out: Cl50 on the cell proliferation of the lines DU-145
Description: (§1) iii) Characterization of the Antiproliferative Activity:
(§2) By way of example, the effect of a treatment on two human cell lines Mia-Paca2 and DU145 by the compounds of the examples described previously will be studied. The cell lines DU145 (human prostate cancer cells) and Mia-PaCa2 (human pancreas cancer cells) were acquired from the American Tissue Culture Collection (Rockville, Md., USA). The cells placed in 80 μl of Dulbecco's Modified Eagle's medium (Gibco-Brl, Cergy-Pontoise, France) completed with 10% foetal calf serum inactivated by heating (Gibco-Brl, Cergy-Pontoise, France), 50,000 units/l of penicillin and 50 mg/l of streptomycin (Gibco-Brl, 10378-057, Cergy-Pontoise, France), and 2 mM of glutamine (Gibco-Brl, Cergy-Pontoise, France) were seeded on a 96-well plate on day 0. The cells were treated on day 1 for 96 hours with increasing concentrations of each of the compounds to be tested up to 10 μM. At the end of this period, quantification of cell proliferation is evaluated by a colorimetric test based on the cleavage of the tetrazolium salt WST1 by the mitochondrial dehydrogenases in viable cells leading to the formation of formazan (Boehringer Mannheim, Meylan, France). These tests are carried out in duplicate with 8 determinations per concentration tested. For each compound to be tested, the values included in the linear part of the sigmoid were retained for a linear regression analysis and used to estimate the inhibitory concentration IC50. The products are solubilized in dimethylsulphoxide (DMSO) at 10^−2 M and used in culture with 0.1% DMSO final.

[2] = tested on: Mia-PaCa2 (human pancreas cancer cells); experiment: Antiproliferative activity, WST1 colorimetric test, Mia-PaCa2; format: cell-based; conditions: MIA PaCa-2, 96 hours treatment, up to 10 μM, read-out: CI50 on the cell proliferation of the lines Mia-Paca2
Description: as §1, §2

Row | SMILES | IC50 [1] [µM] | melting point [°C] | IC50 [2] [µM]
1 | Cc1nc2c(s1)C(=O)C=C(NCCN1CCOCC1)C2=O [Example 1, 2-methyl-5-{[2-(4-morpholinyl)ethyl]amino}-1,3-benzothiazole-4,7-dione] | ≤ 10 | – | –
2 | Cc1nc2c(s1)C(=O)C=C(NCCN(C)C)C2=O [Example 2, 5-{[2-(dimethylamino)ethyl]amino}-2-methyl-1,3-benzothiazole-4,7-dione hydrochloride] | ≤ 10 | – | –
3 | Cc1nc2c(s1)C(=O)C=C(NCCCCCCN(C)C)C2=O [Example 3, 5-{[6-(dimethylamino)hexyl]amino}-2-methyl-1,3-benzothiazole-4,7-dione] | ≤ 10 | – | –
4 | Cc1nc2c(s1)C(=O)C=C(NCC(C)(C)CN(C)C)C2=O [Example 4, 5-{[3-(dimethylamino)-2,2-dimethylpropyl]amino}-2-methyl-1,3-benzothiazole-4,7-dione] | ≤ 10 | – | –
5 | Cc1nc2c(s1)C(=O)C=C(NCCCN1CCN(C)CC1)C2=O [Example 5, 2-methyl-5-{[3-(4-methyl-1-piperazinyl)propyl]amino}-1,3-benzothiazole-4,7-dione] | ≤ 10 | – | –
6 | CCCCCC(CC)NC1=CC(=O)c2sc(C)nc2C1=O (stereo not shown) [Example 6, 5-[(1-ethylhexyl)amino]-2-methyl-1,3-benzothiazole-4,7-dione] | ≤ 10 | – | –
7 | Cc1nc2c(s1)C(=O)C=C(NCC13CC4CC(CC(C4)C1)C3)C2=O [Example 7, 5-[(1-adamantylmethyl)amino]-2-methyl-1,3-benzothiazole-4,7-dione] | ≤ 10 | – | –
8 | Cc1nc2c(s1)C(=O)C=C(NCc1cccs1)C2=O [Example 8, 2-methyl-5-[(2-thienylmethyl)amino]-1,3-benzothiazole-4,7-dione] | ≤ 10 | – | –
9 | Cc1nc2c(s1)C(=O)C=C(NCc1cccc(Cl)c1)C2=O [Example 9, 5-[(3-chlorobenzyl)amino]-2-methyl-1,3-benzothiazole-4,7-dione] | ≤ 10 | – | –
10 | Cc1nc2c(s1)C(=O)C=C(N1CCN(Cc3ccccc3)CC1)C2=O [Example 14, 5-(4-benzyl-1-piperazinyl)-2-methyl-1,3-benzothiazole-4,7-dione] | ≤ 10 | – | –
11 | CCc1nc2c(o1)C(=O)C=C(Nc1ccccc1)C2=O [Example 15, 5-anilino-2-ethyl-4,7-dihydrobenzo[d][1,3]oxazole-4,7-dione] | ≤ 10 | 200 | ≤ 10
12 | CCc1nc2c(o1)C(=O)C(Cl)=C(Nc1ccccc1)C2=O [Example 16, 5-anilino-6-chloro-2-ethyl-1,3-benzoxazole-4,7-dione] | ≤ 10 | 159 | ≤ 10
13 | CCc1nc2c(o1)C(=O)C=C(Nc1ccc(F)cc1)C2=O [Example 17, 2-ethyl-5-[(4-fluorophenyl)amino]-1,3-benzoxazole-4,7-dione] | ≤ 10 | 232 | ≤ 10
14 | COCCNC1=CC(=O)c2sc(C)nc2C1=O [Example 18, 5-[(2-methoxyethyl)amino]-2-methyl-1,3-benzothiazole-4,7-dione] | ≤ 10 | – | –
15 | Cc1nc2c(s1)C(=O)C=C(NCCN1CCCC1)C2=O [Example 19, 2-methyl-5-[(2-pyrrolidin-1-ylethyl)amino]-1,3-benzothiazole-4,7-dione] | ≤ 10 | – | –
16 | Cc1nc2c(s1)C(=O)C=C(NCCN1CCCCC1)C2=O [Example 20, 2-methyl-5-[(2-piperidin-1-ylethyl)amino]-1,3-benzothiazole-4,7-dione] | ≤ 10 | – | –
17 | Cc1nc2c(s1)C(=O)C=C(NCCN(C(C)C)C(C)C)C2=O [Example 21, 5-{[2-(diisopropylamino)ethyl]amino}-2-methyl-1,3-benzothiazole-4,7-dione] | ≤ 10 | – | –
18 | Cc1nc2c(s1)C(=O)C=C(NC1CCN(Cc3ccccc3)C1)C2=O (stereo not shown) [Example 22, 5-[(1-benzylpyrrolidin-3-yl)amino]-2-methyl-1,3-benzothiazole-4,7-dione] | ≤ 10 | – | –

Row | SMILES | IC50 [1] [µM] | melting point [°C] | IC50 [2] [µM]
19 | Cc1nc2c(s1)C(=O)C=C(NCCCN(C)C)C2=O [Example 23, 5-{[3-(dimethylamino)propyl]amino}-2-methyl-1,3-benzothiazole-4,7-dione] | ≤ 10 | – | –
20 | Cc1nc2c(s1)C(=O)C=C(NCCC1CCCN1C)C2=O (stereo not shown) [Example 24, 2-methyl-5-{[2-(1-methylpyrrolidin-2-yl)ethyl]amino}-1,3-benzothiazole-4,7-dione] | ≤ 10 | – | –
21 | Cc1nc2c(s1)C(=O)C=C(NCCCN1CCCCC1C)C2=O (stereo not shown) [Example 25, 2-methyl-5-{[3-(2-methylpiperidin-1-yl)propyl]amino}-1,3-benzothiazole-4,7-dione] | ≤ 10 | – | –
22 | Cc1nc2c(s1)C(=O)C=C(NCCCCN(C)C)C2=O [Example 26, 5-{[4-(dimethylamino)butyl]amino}-2-methyl-1,3-benzothiazole-4,7-dione] | ≤ 10 | – | –
23 | Cc1nc2c(s1)C(=O)C=C(NCCCCCN(C)C)C2=O [Example 27, 5-{[5-(dimethylamino)pentyl]amino}-2-methyl-1,3-benzothiazole-4,7-dione] | ≤ 10 | – | –
24 | Cc1nc2c(s1)C(=O)C=C(NC1CCc3ccccc31)C2=O (stereo not shown) [Example 28, 5-(2,3-dihydro-1H-inden-1-ylamino)-2-methyl-1,3-benzothiazole-4,7-dione] | ≤ 10 | – | –
25 | Cc1nc2c(s1)C(=O)C=C(N(CCN(C)C)Cc1ccccc1)C2=O [Example 29, 5-{benzyl[2-(dimethylamino)ethyl]amino}-2-methyl-1,3-benzothiazole-4,7-dione] | ≤ 10 | – | –
26 | Cc1nc2c(s1)C(=O)C=C(NCCCN(C)C(=O)OC(C)(C)C)C2=O [Example 30, tert-butyl methyl{3-[(2-methyl-4,7-dioxo-4,7-dihydro-1,3-benzothiazole-5-yl)amino]propyl}carbamate] | ≤ 10 | – | –
27 | Cc1nc2c(s1)C(=O)C=C(NCCCNC(=O)OC(C)(C)C)C2=O [Example 31, tert-butyl 3-[(2-methyl-4,7-dioxo-4,7-dihydro-1,3-benzothiazol-5-yl)amino]propylcarbamate] | ≤ 10 | – | –
28 | CNCCCNC1=CC(=O)c2sc(C)nc2C1=O [Example 32, 2-methyl-5-{[3-(methylamino)propyl]amino}-1,3-benzothiazole-4,7-dione hydrochloride] | ≤ 10 | – | –
29 | Cc1nc2c(s1)C(=O)C=C(NCCCN)C2=O [Example 33, 5-[(3-aminopropyl)amino]-2-methyl-1,3-benzothiazole-4,7-dione] | ≤ 10 | – | ≤ 10
30 | Cc1nc2c(s1)C(=O)C(Cl)=C(NCCN(C)C)C2=O [Example 34] | ≤ 10 | – | –
31 | CCCCSC1=C(NCCN(C)C)C(=O)c2nc(C)sc2C1=O [Example 36, 6-(butylthio)-5-{[2-(dimethylamino)ethyl]amino}-2-methyl-1,3-benzothiazole-4,7-dione] | ≤ 10 | – | –
32 | CN(C)CCNC1=CC(=O)c2sc(CN3CCOCC3)nc2C1=O [Example 37, 5-{[2-(dimethylamino)ethyl]amino}-2-(morpholin-4-ylmethyl)-1,3-benzothiazole-4,7-dione] | ≤ 10 | – | –
33 | CN(C)CCNC1=CC(=O)c2sc(CN3CCN(c4ccccc4)CC3)nc2C1=O [Example 38] | ≤ 10 | – | –
34 | CN(C)CCNC1=CC(=O)c2sc(CN3CCCCC3)nc2C1=O [Example 39, 5-{[2-(dimethylamino)ethyl]amino}-2-(piperidin-1-ylmethyl)-1,3-benzothiazole-4,7-dione] | ≤ 10 | – | –
35 | CCc1nc2c(o1)C(=O)C(C)=C(NCCN(C)C)C2=O [Example 55, 5-{[2-(dimethylamino)ethyl]amino}-2-ethyl-6-methyl-1,3-benzoxazole-4,7-dione] | ≤ 10 | 135 | –

From patent US7495021B2, “Benzothiazole- and benzooxazole-4,7-dione, derivatives and their use as cdc25 phosphate inhibitors” (Societe de Conseils de Recherches et d'Applications …, priority 2001, dated 2009)
